These results are taken from patent US11253499B2, “Compounds” (priority 2017, dated 2022).

In this test the test system is M. tuberculosis W4-E1-GFP (Mutant). In kind it is cell-based, Mycobacterium tuberculosis. The settings on record: read-out: EC50_Mutant.
Consider `Cc1cc(F)ccc1C1CN(C(=O)CCC(F)(F)F)C1` [Example 28, 4,4,4-trifluoro-1-[3-(4-fluoro-2-methyl-phenyl)azetidin-1-yl]butan-1-one], for which the EC50 lay within 250 to 500 nM.
Turning to `O=C(CCC(F)(F)F)N1CC(c2cncc(C(F)(F)F)c2)C1` [Example 24, 4,4,4-trifluoro-1-[3-[5-(trifluoromethyl)-3-pyridyl]azetidin-1-yl]butan-1-one], the EC50 is 1000 to 10000 nM.
For the compound `O=C(CCC(F)(F)F)N1CC(N2CCC(F)(F)CC2)C1` [Example 35, 1-[3-(4,4-difluoro-1-piperidyl)azetidin-1-yl]-4,4,4-trifluoro-butan-1-one], the EC50 fell in the range of 500 to 1000 nM.
On to `O=C(CCC(F)(F)F)N1CC(c2cccc(F)c2)C1` [Example 29, 4,4,4-trifluoro-1-[3-(3-fluorophenyl)azetidin-1-yl]butan-1-one], for which the EC50 was in the range of 50 to 250 nM.
In the case of `O=C(CCC(F)(F)F)N1CC(c2ccc(F)nc2)C1` [Example 33, 4,4,4-trifluoro-1-[3-(6-fluoro-3-pyridyl)azetidin-1-yl]butan-1-one], the EC50 was 1000 to 10000 nM.
Turning to `O=C(CCC(F)(F)F)N1CC(c2ccc(Cl)nc2)C1` [Example 19], the EC50 was in the range of 1000 to 10000 nM.
In the case of `O=C(CCC(F)(F)F)N1CC(c2ccnc(C(F)(F)F)c2)C1` [Example 12, 4,4,4-trifluoro-1-[3-[2-(trifluoromethyl)-4-pyridyl]azetidin-1-yl]butan-1-one], the EC50 was 1000 to 10000 nM.
In the case of `COc1ccc(C2CN(C(=O)CCC(F)(F)F)C2)cn1` [Example 22, 4,4,4-trifluoro-1-[3-(6-methoxy-3-pyridyl)azetidin-1-yl]butan-1-one], the EC50 fell in the range of 50 to 250 nM.
Turning to `O=C(CCC(F)(F)F)N1CC(c2cccnc2)C1` [Example 26, 4,4,4-trifluoro-1-[3-(3-pyridyl)azetidin-1-yl]butan-1-one], the EC50 lay in the range of 1000 to 10000 nM.
In the case of `O=C(CCC(F)(F)F)N1CC(c2ncc(F)cc2F)C1` [Example 10, 1-[3-(3,5-difluoro-2-pyridyl)azetidin-1-yl]-4,4,4-trifluoro-butan-1-one], the EC50 fell in the range of 250 to 500 nM.
For `O=C(CCC(F)(F)F)N1CC(c2ccc(Cl)cc2)C1` [Example 13, 1-[3-(4-chlorophenyl)azetidin-1-yl]-4,4,4-trifluoro-butan-1-one] the value was 50 to 250 nM; for `O=C(CCCC(F)(F)F)N1CC(c2ccc(F)cc2)C1` [Example 3, 5,5,5-trifluoro-1-[3-(4-fluorophenyl)azetidin-1-yl]pentan-1-one], 50 to 250 nM.
With `O=C(CCC(F)(F)F)N1CC(F)(c2ccc(F)cc2)C1` [Example 44, 4,4,4-trifluoro-1-(3-fluoro-3-(4-fluorophenyl)azetidin-1-yl)butan-1-one], the EC50 is less than 50 nM.
The value for `O=C(CCC(F)(F)F)N1CC(c2cc(C(F)(F)F)ccn2)C1` [Example 7, 4,4,4-trifluoro-1-[3-[4-(trifluoromethyl)-2-pyridyl]azetidin-1-yl]butan-1-one] was 250 to 500 nM; that for `COC1(c2ccc(F)cc2)CN(C(=O)CCC(F)(F)F)C1` [Example 41, 4,4,4-trifluoro-1-(3-(4-fluorophenyl)-3-methoxyazetidin-1-yl)butan-1-one] was 50 to 250 nM; that for `O=C(CCC(F)(F)F)N1CC(c2ccc(C(F)(F)F)nc2)C1` [Example 21, 4,4,4-trifluoro-1-[3-[6-(trifluoromethyl)-3-pyridyl]azetidin-1-yl]butan-1-one] was 1000 to 10000 nM.
For `O=C(CCC(F)(F)F)N1CC(c2ccc(F)cc2F)C1` [Example 18, 1-[3-(2,4-difluorophenyl)azetidin-1-yl]-4,4,4-trifluoro-butan-1-one] the value was less than 50 nM; for `O=C(CCC(F)(F)F)N1CC(c2ccncc2)C1` [Example 30, 4,4,4-trifluoro-1-[3-(4-pyridyl)azetidin-1-yl]butan-1-one], 1000 to 10000 nM; for `O=C(CCC(F)(F)F)N1CC(c2cccc(C(F)(F)F)c2)C1` [Example 2, 4,4,4-trifluoro-1-[3-[3-(trifluoromethyl)phenyl]azetidin-1-yl]butan-1-one], 50 to 250 nM.
Consider `O=C(CCC(F)(F)F)N1CC(N2CCCCC2)C1` [Example 39, 4,4,4-trifluoro-1-(3-(piperidin-1-yl)azetidin-1-yl)butan-1-one], for which the EC50 fell in the range of 1000 to 10000 nM.
For `O=C(CCC(F)(F)F)N1CC(c2ccc(F)cn2)C1` [Example 9, 4,4,4-trifluoro-1-[3-(5-fluoro-2-pyridyl)azetidin-1-yl]butan-1-one], the EC50 was 500 to 1000 nM.
Consider `O=C(CCC(F)(F)F)N1CC(c2cncc(Cl)c2)C1` [Example 23, 1-[3-(5-chloro-3-pyridyl)azetidin-1-yl]-4,4,4-trifluoro-butan-1-one], for which the EC50 was 1000 to 10000 nM.
`O=C(CCC(F)(F)F)N1CC(C2CC2)C1` [Example 4, 1-(3-cyclopropylazetidin-1-yl)-4,4,4-trifluoro-butan-1-one]: the EC50 lay in the range of 500 to 1000 nM.
On to `O=C(CCC(F)(F)F)N1CC(c2cccc(OC(F)(F)F)c2)C1` [Example 15, 4,4,4-trifluoro-1-[3-[3-(trifluoromethoxy)phenyl]azetidin-1-yl]butan-1-one], for which the EC50 was 50 to 250 nM.
As to `N#Cc1ccc(C2CN(C(=O)CCC(F)(F)F)C2)cc1` [Example 43, 4-(1-(4,4,4-trifluorobutanoyl)azetidin-3-yl)benzonitrile], the EC50 was in the range of 1000 to 10000 nM.
As to `O=C(CCC(F)(F)F)N1CC(c2cc(Cl)ccn2)C1` [Example 11, 1-[3-(4-chloro-2-pyridyl)azetidin-1-yl]-4,4,4-trifluoro-butan-1-one], the EC50 was 50 to 250 nM.
Consider `O=C(CCC(F)(F)F)N1CC(c2ccc(F)cc2C(F)(F)F)C1` [Example 25, 4,4,4-trifluoro-1-[3-[4-fluoro-2-(trifluoromethyl)phenyl]azetidin-1-yl]butan-1-one], for which the EC50 was in the range of 250 to 500 nM.
The value for `O=C(CCC(F)(F)F)N1CC(c2ccc(C(F)(F)F)cn2)C1` [Example 8, 4,4,4-trifluoro-1-[3-[5-(trifluoromethyl)-2-pyridyl]azetidin-1-yl]butan-1-one] was 500 to 1000 nM.
The value for `O=C(CCC(F)(F)F)N1CC(c2ccc(F)c(F)c2)C1` [Example 27, 1-[3-(3,4-difluorophenyl)azetidin-1-yl]-4,4,4-trifluoro-butan-1-one] was less than 50 nM; that for `O=C(CCC(F)(F)F)N1CC(c2ccc(F)cc2Cl)C1` [Example 20, 1-[3-(2-chloro-4-fluoro-phenyl)azetidin-1-yl]-4,4,4-trifluoro-butan-1-one] was 50 to 250 nM.
For the compound `CC(C)Oc1ccc(C2CN(C(=O)CCC(F)(F)F)C2)cn1` [Example 36, 4,4,4-trifluoro-1-[3-(6-isopropoxy-3-pyridyl)azetidin-1-yl]butan-1-one], the EC50 is 1000 to 10000 nM.
Regarding `O=C(CCC(F)(F)F)N1CC(c2cc(F)c(F)c(F)c2)C1` [Example 34, 4,4,4-trifluoro-1-[3-(3,4,5-trifluorophenyl)azetidin-1-yl]butan-1-one], the EC50 lay within 50 to 250 nM.
The value for `CC1(c2ccc(F)cc2)CN(C(=O)CCC(F)(F)F)C1` [Example 42, 4,4,4-trifluoro-1-(3-(4-fluorophenyl)-3-methylazetidin-1-yl)butan-1-one] was 50 to 250 nM; that for `O=C(CCC(F)(F)F)N1CC(c2ccnc(F)c2)C1` [Example 31, 4,4,4-trifluoro-1-[3-(2-fluoro-4-pyridyl)azetidin-1-yl]butan-1-one] was 1000 to 10000 nM; that for `O=C(CCC(F)(F)F)N1CC(c2ccc(C(F)(F)F)cc2)C1` [Example 16] was 250 to 500 nM.
For the compound `O=C(CCC(F)(F)F)N1CC(c2ccc(F)cc2)C1` [Example 1, 4,4,4-trifluoro-1-[3-(4-fluorophenyl)azetidin-1-yl]butan-1-one], the EC50 is less than 50 nM.
Consider `O=C(CCC(F)(F)F)N1CC(c2ccnc(Cl)c2)C1` [Example 32, 1-[3-(2-chloro-4-pyridyl)azetidin-1-yl]-4,4,4-trifluoro-butan-1-one], for which the EC50 was 1000 to 10000 nM.
With `O=C(CCC(F)(F)F)N1CC(C2CCCC2)C1` [Example 5, 1-(3-cyclopentylazetidin-1-yl)-4,4,4-trifluoro-butan-1-one], the EC50 lay within 50 to 250 nM.
For `O=C(CCC(F)(F)F)N1CC(c2cccc(Cl)c2)C1` [Example 17, 1-[3-(3-chlorophenyl)azetidin-1-yl]-4,4,4-trifluoro-butan-1-one] the value was less than 50 nM; for `O=C(CCC(F)(F)F)N1CC(C2CCCCC2)C1` [Example 6, 1-(3-cyclohexylazetidin-1-yl)-4,4,4-trifluoro-butan-1-one], less than 50 nM.
The value for `O=C(CCC(F)(F)F)N1CC(c2ccc(OC(F)(F)F)cc2)C1` [Example 14, 4,4,4-trifluoro-1-[3-[4-(trifluoromethoxy)phenyl]azetidin-1-yl]butan-1-one] was 1000 to 10000 nM; that for `O=C(CCC(F)(F)F)N1CC(C2CCOCC2)C1` [Example 38, 4,4,4-trifluoro-1-(3-(tetrahydro-2H-pyran-4-yl)azetidin-1-yl)butan-1-one] was 1000 to 10000 nM.
The value for `O=C(CCC(F)(F)F)N1CC(c2ccc(OCC(F)(F)F)nc2)C1` [Example 37, 4,4,4-trifluoro-1-[3-[6-(2,2,2-trifluoroethoxy)-3-pyridyl]azetidin-1-yl]butan-1-one] was 1000 to 10000 nM; that for `O=C(CCC(F)(F)F)N1CC(C2CCC(F)(F)CC2)C1` [Example 40, 1-(3-(4,4-difluorocyclohexyl)azetidin-1-yl)-4,4,4-trifluorobutan-1-one] was 50 to 250 nM.
